According to patent US20080097110A1, “Salt forms of substituted benzothienyl compounds” (priority 2006, published 2008):

Experiments:
[1] = Dynamic vapor sorption (DVS) testing of salt forms; assay type: physicochemical
Experimental: Dynamic vapor sorption (DVS) testing was performed on several salt forms and sorption and desorption results under various relative humidity (RH) conditions are shown in Table 3.

[2] = Equilibrium solubility testing of salt forms; assay type: physicochemical
Experimental: Solubility testing was performed on several salt forms and results for free compound (mg) in media (ml) (represented as mg/ml) at equilibrium solubility are shown in Table 4. SIF refers to simulated intestinal fluid.

Compound | Sorption ([1]; 0-60% RH) | Sorption ([1]; 0-90% RH) | Sorption ([1]; 60-70% RH) | Sorption ([1]; 70-80% RH) | Sorption ([1]; 80-90% RH) | Desorption ([1]; 90-0% RH) | also measured
CP(=O)([O-])C(C(=O)N/C=C/c1ccc(F)c(F)c1)c1csc2ccc(Cl)cc12.[K+] (centres unmarked) [Form F1] | 0-60% RH: 0.00% | 0-90% RH: 11.35% | 60-70% RH: 0.30% | 70-80% RH: 2.46% | 80-90% RH: 8.59% | 90-0% RH: 16.81% | 
CP(=O)(O)C(C(=O)N/C=C/c1ccc(F)c(F)c1)c1csc2ccc(Cl)cc12.NC(CO)(CO)CO (centres unmarked) [Form B2] |  | 0-90% RH: 2.085% |  |  |  | 90-0% RH: 2.231% | 
CO.CP(=O)(O)C(C(=O)N/C=C/c1ccc(F)c(F)c1)c1csc2ccc(Cl)cc12 (centres unmarked) [Form A] |  | 0-90% RH: 2.94% |  |  |  |  | Equilibrium solubility, free compound (mg) in media (ml) ([2]; media 0.1N HCL, pH 1.50 (A), 1.40 (Compound 1b), 1.51 (B1)): 5.7 mg/mL; Equilibrium solubility, free compound (mg) in media (ml) ([2]; media 0.1N NaOH, pH 4.47 (A), 11.78 (Compound 1b), 8.88 (B1)): 46.5 mg/mL; Equilibrium solubility, free compound (mg) in media (ml) ([2]; media SIF (simulated intestinal fluid), pH 4.78 (A), 7.85 (Compound 1b), 7.65 (B1)): 18.7 mg/mL; Sorption ([1]; 0-30% RH): 0-30% RH: 0.34%; Desorption ([1]; 30-0% RH): 30-0% RH: 7.14%; Sorption ([1]; 30-90% RH): 30-90% RH: 2.60%; Desorption ([1]; 90-30% RH): 90-30% RH: 1.48%
CP(=O)([O-])C(C(=O)N/C=C/c1ccc(F)c(F)c1)c1csc2ccc(Cl)cc12.[K+] (centres unmarked) [Form F3] | 0-60% RH: 0.00% | 0-90% RH: 11.35% | 60-70% RH: 0.30% | 70-80% RH: 2.46% | 80-90% RH: 8.59% | 90-0% RH: 16.81% | 
CP(=O)(O)C(C(=O)N/C=C/c1ccc(F)c(F)c1)c1csc2ccc(Cl)cc12.NC(CO)(CO)CO (centres unmarked) [Form B1] |  |  |  |  |  |  | Equilibrium solubility, free compound (mg) in media (ml) ([2]; pH 1.5): 1.7 mg/mL; Equilibrium solubility, free compound (mg) in media (ml) ([2]; pH 4.47): 42.2 mg/mL; Equilibrium solubility, free compound (mg) in media (ml) ([2]; pH 4.78): 14.6 mg/mL
CP(=O)([O-])C(C(=O)N/C=C/c1ccc(F)c(F)c1)c1csc2ccc(Cl)cc12.[K+] (centres unmarked) [Form F2] | 0-60% RH: 0.00% | 0-90% RH: 11.35% | 60-70% RH: 0.30% | 70-80% RH: 2.46% | 80-90% RH: 8.59% | 90-0% RH: 16.81% | 
CNC[C@H](O)[C@@H](O)[C@H](O)[C@H](O)CO.CP(=O)(O)C(C(=O)N/C=C/c1ccc(F)c(F)c1)c1csc2ccc(Cl)cc12 (centres unmarked) [Form C2] |  | 0-90% RH: 5.52% |  |  | 80-90% RH: 1.84% | 90-0% RH: 6.66% | Solubility (remained in solution; equilibrium solubility could not be determined) ([2]; media not stated): > 232 mg/mL; Sorption ([1]; 0-80% RH): 0-80% RH: 3.68%; Desorption ([1]; 10-0% RH): 10-0% RH: 2.75%; Desorption ([1]; 90-10% RH): 90-10% RH: 3.91%
